Some test systems named below: Enterococcus faecalis VR; Enterococcus faecalis; Pseudomonas aeruginosa; Acinetobacter baumannii; Escherichia coli K88; Escherichia coli K99; Escherichia coli UB1005; Escherichia coli; Klebsiella pneumoniae.
Holding throughout (assay): ≥ marks a high value that may be exact or a test limit, other limits are often not marked, values filed in µg/mL are converted to µM
Experiment [1] deals with Bacillus subtilis KCTC 3068.
Experiment [2] relates to Escherichia coli DSM 1103.
Experiment [3] has as its system Escherichia coli KCTC 1682.
Experiment [4] relates to Pseudomonas aeruginosa CCARM 2092.
Experiment [5] relates to Pseudomonas aeruginosa CCARM 2095.
The test system of experiment [6] is Pseudomonas aeruginosa CCARM 2109.
Experiment [7] has as its system Pseudomonas aeruginosa DSM 1117.
The subject of experiment [8] is Pseudomonas aeruginosa KCTC 1637.
Experiment [9] has as its system Salmonella typhimurium KCTC 1926.
For experiment [10], the system named is Staphylococcus aureus CCARM 3001.
In experiment [11] the test system is Staphylococcus aureus CCARM 3089.
In experiment [12] the test system is Staphylococcus aureus CCARM 3543.
Experiment [13] concerns Staphylococcus aureus DSM 1104.
The test system of experiment [14] is Staphylococcus aureus KCTC 1621.
Experiment [15] relates to Staphylococcus epidermidis DSM 1798.
Experiment [16] concerns Staphylococcus epidermidis KCTC 1917.
The test system of experiment [17] is Escherichia coli ATCC 25922.
Experiment [18] deals with Escherichia coli ATCC BAA-2523.
The subject of experiment [19] is Pseudomonas aeruginosa ATCC 27853.
In experiment [20] the test system is Staphylococcus aureus ATCC 29213.
Experiment [21] deals with Staphylococcus aureus ATCC 43300.
Experiment [22] has as its system Acinetobacter baumannii 4-MRGN.
The test system of experiment [23] is Pseudomonas aeruginosa CICC 21625.
Experiment [24] deals with Pseudomonas aeruginosa CICC 21630.
In experiment [25] the test system is Pseudomonas aeruginosa PAO1.
Experiment [26] relates to Salmonella enterica subsp. enterica serovar Pullorum C79-13.
The subject of experiment [27] is Salmonella enterica subsp. enterica serovar Typhimurium ATCC 14028.
For experiment [28], the system named is Salmonella enterica subsp. enterica serovar Typhimurium C77-31.

In brackets after ≈: the same amount, converted by molar mass.

`CC(C)[C@H](NC(=O)[C@H](CCCCN)NC(=O)[C@H](CCCN=C(N)N)NC(=O)[C@H](CCCCN)NC(=O)[C@H](CCCCN)NC(=O)[C@H](CCCCN)NC(=O)[C@@H]1CCCN1C(=O)[C@H](CCC(N)=O)NC(=O)[C@H](CO)NC(=O)[C@H](Cc1c[nH]c2ccccc12)NC(=O)[C@H](CCC(=O)O)NC(=O)[C@@H](NC(=O)[C@H](Cc1c[nH]c2ccccc12)NC(=O)[C@H](Cc1c[nH]c2ccccc12)NC(=O)[C@@H](NC(=O)[C@H](CCC(=O)O)NC(=O)[C@H](Cc1c[nH]c2ccccc12)NC(=O)[C@H](Cc1c[nH]c2ccccc12)NC(=O)[C@@H](NC(=O)[C@H](CCC(=O)O)NC(=O)[C@@H](N)CCCCN)[C@@H](C)O)[C@@H](C)O)[C@@H](C)O)C(=O)O` [KETWWETWWTEWSQPKKKRKV]: the minimal inhibitory concentration (MIC) in [1] is 8 µM (≈ 22.8 µg/mL); in experiment [2] it was no less than 87 µM; in experiment [3] it was no less than 32 µM; in experiment [4] it was no less than 32 µM; in experiment [5] it was no less than 64 µM; in experiment [6], no less than 32 µM. The minimal inhibitory concentration (MIC) is no less than 87 µM in [7]; no less than 64 µM in experiment [8]; no less than 64 µM in [9]; no less than 64 µM in experiment [10]; no less than 64 µM in experiment [11]; no less than 64 µM in [12]. Moreover, the minimal inhibitory concentration (MIC) in [13] is no less than 87 µM; in experiment [14], no less than 64 µM; in experiment [15] it was no less than 87 µM; in experiment [16] it was no less than 64 µM.

Consider `CC(C)C[C@H](NC(=O)[C@@H](N)CCC(N)=O)C(=O)NCC(=O)N[C@@H](CCCN=C(N)N)C(=O)N[C@@H](CCCN=C(N)N)C(=O)N[C@@H](CCCN=C(N)N)C(=O)N[C@@H](Cc1cnc[nH]1)C(=O)N[C@@H](CCCN=C(N)N)C(=O)N[C@@H](CCCN=C(N)N)C(=O)N[C@@H](CCCN=C(N)N)C(=O)N1CCC[C@H]1C(=O)N[C@@H](CO)C(=O)N[C@@H](CCCN=C(N)N)C(=O)N[C@@H](CCCN=C(N)N)C(=O)N[C@@H](CCCN=C(N)N)C(=O)N[C@@H](CCCN=C(N)N)C(=O)N[C@@H](Cc1cnc[nH]1)C(=O)N[C@@H](Cc1c[nH]c2ccccc12)C(=O)O` [QLGRRRHRRRPSRRRRHW], for which the MIC against Enterococcus faecalis VR was 16 µM (≈ 40.4 µg/mL); against Enterococcus faecalis, no less than 32 µM; in [17] it was 64 µM (≈ 161 µg/mL); in experiment [18] it was no less than 128 µM; in [19], greater than 128 µM; in the experiment on Pseudomonas aeruginosa, 128 µM (≈ 323 µg/mL). Moreover, the MIC in experiment [20] was found to be 32 µM (≈ 80.7 µg/mL); in experiment [21], 16 µM (≈ 40.4 µg/mL).

As to `C[C@H](N)C(=O)N[C@H](C(=O)N[C@@H](CS)C(=O)N[C@@H](Cc1ccc(O)cc1)C(=O)N[C@H]1CSSC[C@@H](C(=O)N[C@@H](C)C(=O)N[C@H](C(=O)N[C@@H](CCCN=C(N)N)C(=O)O)[C@@H](C)O)NC(=O)[C@H](CCCN=C(N)N)NC(=O)CNC(=O)[C@H]([C@@H](C)O)NC(=O)[C@H](CCCN=C(N)N)NC1=O)[C@@H](C)O` [ATCYCRTGRCATR], the MIC in experiment [22] was no less than 99.9 µM; in experiment [19], greater than 99.9 µM.

Take `CC(C)[C@H](N)C(=O)N[C@@H](CCCCN)C(=O)N1CCC[C@H]1C(=O)N[C@H](C(=O)N[C@H](C(=O)N[C@@H](CCCCN)C(=O)N1CCC[C@H]1C(=O)N[C@H](C(=O)N[C@H](C(=O)N[C@@H](CCCCN)C(=O)N1CCC[C@H]1C(=O)N[C@H](C(=O)N[C@H](C(=O)N[C@@H](CCCCN)C(=O)N1CCC[C@H]1C(=O)N[C@H](C(=O)N[C@H](C(=O)N[C@@H](CCCCN)C(=O)N1CCC[C@H]1C(=O)N[C@H](C(=O)N[C@H](C(=O)N[C@@H](CCCCN)C(=O)N1CCC[C@H]1C(=O)N[C@H](C(N)=O)C(C)C)C(C)C)C(C)C)C(C)C)C(C)C)C(C)C)C(C)C)C(C)C)C(C)C)C(C)C)C(C)C` [VKPVVKPVVKPVVKPVVKPVVKPV]: the MIC against Acinetobacter baumannii is no less than 64 µM; in experiment [17] it was greater than 64 µM; against Escherichia coli K88, no less than 64 µM; with Escherichia coli K99 it was no less than 64 µM; with Escherichia coli UB1005, no less than 64 µM; in the experiment with Escherichia coli it was greater than 64 µM. Besides, the MIC with Klebsiella pneumoniae was greater than 64 µM; in experiment [19], greater than 64 µM; in experiment [23] it was no less than 64 µM; in experiment [24], no less than 64 µM; in experiment [25] it was greater than 64 µM; in the experiment on Pseudomonas aeruginosa it was greater than 64 µM. In addition, the results for the MIC in [26], in experiment [27] and in [28] were no less than 64 µM, greater than 64 µM and no less than 64 µM, respectively.

Broadly, the MIC is the lowest concentration found to suppress growth. A higher MIC goes with a less susceptible organism.
